Data from patent US8975234B2, “Anti-bacterial infection, inflammation, and leukemia composition and use thereof” (priority 2011, dated 2015).
In brackets after ≈: the same amount, converted by molar mass. Like-named read-outs stand apart in the source and are kept apart here.

Legend:
[1] = tested on: Staphylococcus aureus (MSSA and MRSA strains); test: Synergy of antibiotics with Tellimagrandin II (text summary of Tables 1 to 4); type: cell-based; conditions: Table 2
Procedure: (§1) A serial of twofold dilution of the tested antibiotics (oxacillin, erythromycin, ampicillin, kanamycin, levofoxacin, vancomycin and doxycycline) was perform by Broth microdilution method to a final concentration of 2-512 μg/mL. The bacterial overnight culture was collected and re-suspended in the Muller-Hilton (M-H) broth. An aliquot of cell suspension (OD600=0.1) was prepared. The bacterial suspensions were plated in 96-well plate and incubated with test antibiotics at 37° C. in a 5% CO2 incubator (Table 1 to Table 4).
(§2) The […], […] and antagonism between two drugs was evaluated by the following formula:
(§3) [formula] The criteria of fractional inhibitory concentration index: […]

[2] = tested on: MSSA (Methicillin-susceptible Staphylococcus aureus); test: Minimum inhibitory concentration (broth microdilution) and FIC index; type: cell-based
Procedure: as §1, §2, §3

[3] = tested on: standard MRSA strain (ATCC 33591); test: Minimum inhibitory concentration (broth microdilution); type: cell-based, Staphylococcus aureus; conditions: Staphylococcus aureus, Table 1
Procedure: as §1

[4] = tested on: 14 clinical isolated MRSA strains; test: MIC and FIC index of oxacillin with Tellimagrandin II, clinical isolates; type: cell-based; conditions: Staphylococcus aureus
Procedure: 14 clinical isolated MRSA strains were tested with oxacillin and Tellimagrandin II (40 μg/mL) and the FIC index was calculated.
as §1, §2, §3

MRSA 19615 [5] = test: Time-killing curve; type: cell-based, Staphylococcus aureus; conditions: 5 μg/mL alone
Procedure: MRSA 19615 bacteria were cultured overnight, collected and re-suspended in 25 mL MHB containing TGII and antibiotics of the indicated final concentration. To dilute the samples, samples were taken from the suspension at indicated time interval and mixed with filtered PBS, followed by spreading the diluted sample on MHA plated for two plates/each time point. Colony counts between 150 and 500 colonies in first time point was used to determine the dilution fold. Time-killing curves were calculated from colony counting and data analyzing was performed after overnight culture. Bacterial time-kill curves were constructed by plotting mean colony counts (log10 cfu/mL) versus time (FIGS. 4 and 5).

MRSA 19615 [6] = test: Minimum inhibitory concentration (broth microdilution) and FIC index; type: cell-based, Staphylococcus aureus
Procedure: as §1, §2, §3

MRSA 18271 = test: as above; type: cell-based, Staphylococcus aureus
Procedure: as §1, §2, §3

MRSA 18631 = test: as above; type: cell-based, Staphylococcus aureus
Procedure: as §1, §2, §3

[7] = Table 3, MSSA, Tellimagrandin II (40 μg/ml) +
[8] = Table 3, 19615, Tellimagrandin II (40 μg/ml) +
[9] = Table 3, 18271, Tellimagrandin II (40 μg/ml) +
[10] = Table 3, 18631, Tellimagrandin II (40 μg/ml) +

`Cc1onc(-c2ccccc2)c1C(=O)N[C@@H]1C(=O)N2[C@@H]1SC(C)(C)[C@@H]2C(=O)O` [Oxacillin] was tested, and the “effect of antibiotic with Tellimagrandin II” value [1] was “synergistic effect”, the MIC ([2]; Staphylococcus aureus, MSSA, Table 1, MSSA, read-out: Minimum inhibitory concentration) was 4 mg/L and the MIC ([2]; Staphylococcus aureus, MSSA, Table 2, Non-drug resistant Staphylococcus aureus, with TG II 30 μg/mL, read-out: MIC) was less than 2 mg/L. For the same molecule, the MIC ([2]; Staphylococcus aureus, MSSA, Table 2, Non-drug resistant Staphylococcus aureus, with TG II 40 μg/mL, read-out: MIC) was less than 2 mg/L, the MIC ([2]; Staphylococcus aureus, MSSA, Table 2, Non-drug resistant Staphylococcus aureus, without TG II, read-out: MIC) was 4 mg/L and the MIC ([2]; Staphylococcus aureus, MSSA, Table 3, MSSA, Tellimagrandin II (40 μg/ml) −, read-out: MIC) was 4 mg/L. It also gave an FIC ([2]; Table 2, Non-drug resistant Staphylococcus aureus, with TG II 30 μg/mL) of 0.5, an FIC ([2]; Table 2, Non-drug resistant Staphylococcus aureus, with TG II 40 μg/mL) of 0.5 and an FIC [2, 7] of 0.5. For the same molecule, the MIC [2, 7] was 2 mg/L, the MIC [3] was 512 mg/L (≈ 1280 µM) and the MIC ([4]; MRSA 1, oxacillin alone) was 512 mg/L. It also gave an MIC ([4]; MRSA 2, oxacillin alone) of 512 mg/L, an MIC ([4]; MRSA 3, oxacillin alone) of 512 mg/L and an MIC ([4]; MRSA 4, oxacillin alone) of 512 mg/L. The MIC ([4]; MRSA 5, oxacillin alone) was 512 mg/L, the MIC ([4]; MRSA 6, oxacillin alone) was 256 mg/L and the MIC ([4]; MRSA 7, oxacillin alone) was 256 mg/L. For the same molecule, the MIC ([4]; MRSA 8, oxacillin alone) was 128 mg/L, the MIC ([4]; MRSA 9, oxacillin alone) was 128 mg/L and the MIC ([4]; MRSA 10, oxacillin alone) was 64 mg/L. The MIC ([4]; MRSA 11, oxacillin alone) was 64 mg/L, the MIC ([4]; MRSA 12, oxacillin alone) was 64 mg/L and the MIC ([4]; MRSA 13, oxacillin alone) was 64 mg/L. The MIC ([4]; MRSA 14, oxacillin alone) was 32 mg/L, the “bacterial growth, time-killing curve” value (MRSA 19615 [5]) was “failed to inhibit bacterial growth” and the MIC (MRSA 19615 [6]; Staphylococcus aureus, MRSA, Table 1, MRSA 19615, read-out: Minimum inhibitory concentration) was 512 mg/L. The MIC (MRSA 19615 [6]; Staphylococcus aureus, MRSA, Table 2, 19615, with TG II 30 μg/mL, read-out: MIC) was less than 2 mg/L, the MIC (MRSA 19615 [6]; Staphylococcus aureus, MRSA, Table 2, 19615, with TG II 40 μg/mL, read-out: MIC) was 4 mg/L and the MIC (MRSA 19615 [6]; Staphylococcus aureus, MRSA, Table 2, 19615, without TG II, read-out: MIC) was 512 mg/L. The MIC (MRSA 19615 [6]; Staphylococcus aureus, MRSA, Table 3, 19615, Tellimagrandin II (40 μg/ml) −, read-out: MIC) was 512 mg/L, the FIC (MRSA 19615 [6]; Table 2, 19615, with TG II 30 μg/mL) was 0.004 and the FIC (MRSA 19615 [6]; Table 2, 19615, with TG II 40 μg/mL) was 0.008. The FIC (MRSA 19615 [6]; [8]) was 0.008, the MIC (MRSA 19615 [6]; [8]) was 4 mg/L and the MIC (MRSA 18271; Staphylococcus aureus, MRSA, Table 1, MRSA 18271, read-out: Minimum inhibitory concentration) was greater than 512 mg/L. It also gave an MIC (MRSA 18271; Staphylococcus aureus, MRSA, Table 2, 18271, with TG II 30 μg/mL, read-out: MIC) of 32 mg/L, an MIC (MRSA 18271; Staphylococcus aureus, MRSA, Table 2, 18271, with TG II 40 μg/mL, read-out: MIC) of 16 mg/L and an MIC (MRSA 18271; Staphylococcus aureus, MRSA, Table 2, 18271, without TG II, read-out: MIC) of 512 mg/L. The MIC (MRSA 18271; Staphylococcus aureus, MRSA, Table 3, 18271, Tellimagrandin II (40 μg/ml) −, read-out: MIC) was 512 mg/L, the FIC (MRSA 18271; Table 2, 18271, with TG II 30 μg/mL) was 0.0063 and the FIC (MRSA 18271; Table 2, 18271, with TG II 40 μg/mL) was 0.0031. For the same molecule, the FIC (MRSA 18271; [9]) was 0.031, the MIC (MRSA 18271; [9]) was 16 mg/L and the MIC (MRSA 18631; Staphylococcus aureus, MRSA, Table 1, MRSA 18631, read-out: Minimum inhibitory concentration) was greater than 512 mg/L. For the same molecule, the MIC (MRSA 18631; Staphylococcus aureus, MRSA, Table 2, 18631, with TG II 30 μg/mL, read-out: MIC) was 64 mg/L, the MIC (MRSA 18631; Staphylococcus aureus, MRSA, Table 2, 18631, with TG II 40 μg/mL, read-out: MIC) was 8 mg/L and the MIC (MRSA 18631; Staphylococcus aureus, MRSA, Table 2, 18631, without TG II, read-out: MIC) was 512 mg/L. The MIC (MRSA 18631; Staphylococcus aureus, MRSA, Table 3, 18631, Tellimagrandin II (40 μg/ml) −, read-out: MIC) was 512 mg/L, the FIC (MRSA 18631; Table 2, 18631, with TG II 30 μg/mL) was 0.125 and the FIC (MRSA 18631; Table 2, 18631, with TG II 40 μg/mL) was 0.016. It also gave an FIC (MRSA 18631; [10]) of 0.016 and an MIC (MRSA 18631; [10]) of 8 mg/L.
